Laboratory results taken from ChEMBL document CHEMBL1126835, “QSAR's from similarity matrices. Technique validation and application in the comparison of different similarity evaluation methods” (J Med Chem, 1993).

Target: T1, Sex hormone-binding globulin (Homo sapiens) (UniProt P04278)
T1 sequence (whole entry): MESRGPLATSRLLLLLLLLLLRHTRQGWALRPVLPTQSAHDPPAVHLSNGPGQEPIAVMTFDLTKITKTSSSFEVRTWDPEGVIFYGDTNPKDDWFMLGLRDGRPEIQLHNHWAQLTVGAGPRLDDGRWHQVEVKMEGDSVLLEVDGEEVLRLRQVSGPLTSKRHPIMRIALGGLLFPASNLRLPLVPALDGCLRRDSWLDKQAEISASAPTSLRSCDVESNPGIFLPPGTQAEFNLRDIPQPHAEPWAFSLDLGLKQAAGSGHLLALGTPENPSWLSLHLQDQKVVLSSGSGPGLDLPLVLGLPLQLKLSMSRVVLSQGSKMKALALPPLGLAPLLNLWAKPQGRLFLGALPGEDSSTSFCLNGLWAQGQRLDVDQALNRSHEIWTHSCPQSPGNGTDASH
Description: Binding affinity towards human testosterone binding globulin.

Compound	Log 1/K
C[C@]12CCC(=O)C=C1CC[C@@H]1[C@@H]2C(=O)C[C@@]2(C)[C@H]1CC[C@]2(O)C(=O)CO	-6.43
CC(=O)[C@H]1CC[C@H]2[C@@H]3CCC4=CC(=O)CC[C@]4(C)[C@H]3CC[C@]12C	-6.94
C[C@]12CCC(=O)C=C1CC[C@@H]1[C@@H]2[C@@H](O)C[C@@]2(C)[C@H]1CC[C@]2(O)C(=O)CO	-6.2
C[C@]12CC[C@H]3[C@@H](CCC4=CC(=O)CC[C@@]43C)[C@@H]1CC[C@@H]2C(=O)CO	-7.38
C[C@]12CCC(=O)C=C1CC[C@@H]1[C@@H]2CC[C@@]2(C)[C@H]1CC[C@]2(O)C(=O)CO	-7.2
C[C@]12CC[C@@H](O)C[C@H]1CC[C@@H]1[C@@H]2CC[C@]2(C)C(=O)CC[C@@H]12	-6.15
C[C@]12CC[C@H](O)CC1=CC[C@@H]1[C@@H]2CC[C@]2(C)C(=O)CC[C@@H]12	-7.82
C[C@]12C[C@H](O)[C@H]3[C@@H](CCC4=CC(=O)CC[C@@]43C)[C@@H]1CC[C@@H]2C(=O)CO	-6.34
CC(=O)[C@@]1(O)CC[C@H]2[C@@H]3CCC4=CC(=O)CC[C@]4(C)[C@H]3CC[C@@]21C	-7
C[C@]12CCC(=O)C=C1CCC1C3CC[C@H](C(=O)CO)[C@@]34C[C@H](OC4O)C12 (stereo partly drawn)	-5.32
CC(=O)[C@H]1CC[C@H]2[C@@H]3CC=C4C[C@@H](O)CC[C@]4(C)[C@H]3CC[C@]12C	-7.15
CC(=O)[C@@]1(O)CC[C@H]2[C@@H]3CC=C4C[C@@H](O)CC[C@]4(C)[C@H]3CC[C@@]21C	-6.36
CCCCc1cc2c(cn1)[nH]c1ccccc12	-9.11
C[C@]12CCC3C4=C(CCC3C1CCC2=O)CC(=O)C=C4 (stereo partly drawn)	-8.18
C[C@]12CCC(=O)C=C1CC[C@@H]1[C@@H]2CC[C@]2(C)C(=O)CC[C@@H]12	-7.46

Target: T2, Monoamine oxidase (Homo sapiens, UniProt P21397+P27338)
T2 sequence (P21397 whole entry): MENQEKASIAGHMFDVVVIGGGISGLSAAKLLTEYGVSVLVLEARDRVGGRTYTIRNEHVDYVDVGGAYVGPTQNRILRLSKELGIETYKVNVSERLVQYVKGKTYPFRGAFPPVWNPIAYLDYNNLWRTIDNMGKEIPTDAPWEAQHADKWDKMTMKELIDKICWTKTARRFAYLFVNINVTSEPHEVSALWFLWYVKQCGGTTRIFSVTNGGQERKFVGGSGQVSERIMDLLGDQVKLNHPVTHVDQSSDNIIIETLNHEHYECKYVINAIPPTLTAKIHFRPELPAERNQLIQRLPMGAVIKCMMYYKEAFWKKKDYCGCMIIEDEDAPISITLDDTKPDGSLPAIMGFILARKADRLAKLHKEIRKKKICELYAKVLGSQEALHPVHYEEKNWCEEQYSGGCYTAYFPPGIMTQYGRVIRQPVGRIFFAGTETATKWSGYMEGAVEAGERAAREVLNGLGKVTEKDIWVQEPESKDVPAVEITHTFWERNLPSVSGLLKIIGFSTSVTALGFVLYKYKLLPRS
T2 sequence (P27338 whole entry): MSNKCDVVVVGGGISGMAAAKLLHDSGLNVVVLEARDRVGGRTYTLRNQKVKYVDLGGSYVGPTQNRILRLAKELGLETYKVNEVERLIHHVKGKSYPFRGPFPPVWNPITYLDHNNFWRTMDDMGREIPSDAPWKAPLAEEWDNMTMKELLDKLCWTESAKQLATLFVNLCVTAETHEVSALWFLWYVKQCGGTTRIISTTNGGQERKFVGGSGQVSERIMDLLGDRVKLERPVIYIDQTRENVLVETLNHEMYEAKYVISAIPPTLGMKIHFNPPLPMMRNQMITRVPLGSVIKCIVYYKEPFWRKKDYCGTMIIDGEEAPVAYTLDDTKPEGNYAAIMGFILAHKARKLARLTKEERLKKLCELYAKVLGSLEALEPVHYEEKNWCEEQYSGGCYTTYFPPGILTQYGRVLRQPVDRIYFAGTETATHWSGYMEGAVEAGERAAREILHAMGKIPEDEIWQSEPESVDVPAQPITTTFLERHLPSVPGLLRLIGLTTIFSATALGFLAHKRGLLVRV
Assay: Binding affinity towards monoaminooxidase Relative to MPTP
Type: protein assay

Compound	Relative activity
Cc1cccc(C2=CCN(C)CC2)c1	3
CN1CCC(c2ccccc2)CC1	1
CN1CCc2c([nH]c3ccccc23)C1	2
CN1CC=C(c2cccn2C)CC1	3
CCc1ccccc1C1=CCN(C)CC1	3
N#CCCC(=O)N1CC=C(c2ccccc2)CC1	1
CC1CN(C)CC=C1c1ccccc1 (stereo not drawn)	2
CN1CC=C(c2ccccc2F)CC1	3
COc1ccccc1C1=CCN(C)CC1	3
CCCN1CC=C(c2ccccc2)CC1	1
CN1CC=C(c2cccs2)CC1	2
C=CCN1CC=C(c2ccccc2)CC1	1
CCN1CC=C(c2ccccc2)CC1	2
CN1CC=C(c2cccc(Br)c2)CC1	3
C1=C(c2ccccc2)CCN(CC2CC2)C1	1
Cc1ccc(C2=CCN(C)CC2)cc1	2
CN1CC=C(c2ccc(Cl)cc2)CC1	2
CN1CC=C(C(C)(C)C)CC1	2
Clc1ccc(C2=CCNCC2)cc1	2
C/C(=C\CN(C)C)c1ccccc1	3

Compound	Relative activity
CN1CC=C(Cc2ccccc2)CC1	3
CN1CC=C(c2cccc(F)c2)CC1	3
CCCCN1CC=C(c2ccccc2)CC1	1
CN1CC=C(c2ccccc2C(F)(F)F)CC1	3
COc1cccc(C2=CCN(C)CC2)c1	2
CCN1CC=CCC1	2
CC1=C(c2ccccc2)CCN(C)C1	2
Cc1cccc(C)c1C1=CCN(C)CC1	3
C1=C(c2ccccc2)CCNC1	3
C1=C(c2ccccc2)CCN(Cc2ccccc2)C1	1
Fc1ccc(C2=CCNCC2)cc1	2
CN1CC=C(c2ccc(F)cc2)CC1	2
CN1CC=C(c2ccccc2Cl)CC1	3
CN1CC=C(C2CCCCC2)CC1	3
Cc1ccccc1C1=CCN(C)CC1	3
CC(C)N1CC=C(c2ccccc2)CC1	1
CN1CC=C(c2cccc(Cl)c2)CC1	3
OCCN1CC=C(c2ccccc2)CC1	2
CN1CC=C(c2ccccc2)CC1	3
CCC1=CCN(C)CC1	2

Target: T3, Corticosteroid-binding globulin (Homo sapiens) (UniProt P08185)
T3 sequence (whole entry): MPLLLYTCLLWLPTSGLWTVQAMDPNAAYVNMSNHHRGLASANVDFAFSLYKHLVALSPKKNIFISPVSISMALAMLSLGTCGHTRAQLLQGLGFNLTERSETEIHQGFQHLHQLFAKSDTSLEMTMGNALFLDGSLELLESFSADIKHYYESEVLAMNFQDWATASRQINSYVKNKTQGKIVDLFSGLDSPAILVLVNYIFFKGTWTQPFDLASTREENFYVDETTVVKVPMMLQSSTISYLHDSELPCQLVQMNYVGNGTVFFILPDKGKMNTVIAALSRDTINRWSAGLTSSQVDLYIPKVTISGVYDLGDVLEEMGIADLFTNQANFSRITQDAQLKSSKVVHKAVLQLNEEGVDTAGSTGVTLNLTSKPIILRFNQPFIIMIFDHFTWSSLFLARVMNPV
Description: Binding affinity towards human corticosteroid binding globulin.

Compound	Log 1/K
C[C@]12CCC(=O)C=C1CC[C@@H]1[C@@H]2C(=O)C[C@@]2(C)[C@H]1CC[C@]2(O)C(=O)CO	-6.89
CC(=O)[C@H]1CC[C@H]2[C@@H]3CCC4=CC(=O)CC[C@]4(C)[C@H]3CC[C@]12C	-7.38
C[C@]12CCC(=O)C=C1CC[C@@H]1[C@@H]2[C@@H](O)C[C@@]2(C)[C@H]1CC[C@]2(O)C(=O)CO	-7.88
C[C@]12CC[C@H]3[C@@H](CCC4=CC(=O)CC[C@@]43C)[C@@H]1CC[C@@H]2C(=O)CO	-7.65
C[C@]12CCC(=O)C=C1CC[C@@H]1[C@@H]2CC[C@@]2(C)[C@H]1CC[C@]2(O)C(=O)CO	-7.88
C[C@]12CC[C@@H](O)C[C@H]1CC[C@@H]1[C@@H]2CC[C@]2(C)C(=O)CC[C@@H]12	-5.22
C[C@]12CC[C@H](O)CC1=CC[C@@H]1[C@@H]2CC[C@]2(C)C(=O)CC[C@@H]12	-5
C[C@]12C[C@H](O)[C@H]3[C@@H](CCC4=CC(=O)CC[C@@]43C)[C@@H]1CC[C@@H]2C(=O)CO	-7.88
CC(=O)[C@@]1(O)CC[C@H]2[C@@H]3CCC4=CC(=O)CC[C@]4(C)[C@H]3CC[C@@]21C	-7.74
C[C@]12CCC(=O)C=C1CCC1C3CC[C@H](C(=O)CO)[C@@]34C[C@H](OC4O)C12 (stereo partly drawn)	-6.28
CC(=O)[C@H]1CC[C@H]2[C@@H]3CC=C4C[C@@H](O)CC[C@]4(C)[C@H]3CC[C@]12C	-5.22
CC(=O)[C@@]1(O)CC[C@H]2[C@@H]3CC=C4C[C@@H](O)CC[C@]4(C)[C@H]3CC[C@@]21C	-5
CCCCc1cc2c(cn1)[nH]c1ccccc12	-5
C[C@]12CCC3C4=C(CCC3C1CCC2=O)CC(=O)C=C4 (stereo partly drawn)	-5
C[C@]12CCC(=O)C=C1CC[C@@H]1[C@@H]2CC[C@]2(C)C(=O)CC[C@@H]12	-5.76

System: not listed separately
Assay: Dissociation constant (pKa)
Type: physicochemical

Compound	pKa
CN1C=CNC1Br (stereo not drawn)	3.82
BrC1NC=CN1	3.79
C1=CNC(c2ccncc2)N1	5.36
CN1C=CNC1	7.12
C1=CNC(c2ccccc2)N1	6.48
CN1C=CNC1F (stereo not drawn)	2.3
ClC1NC=CN1	3.55
NC1NC=CN1	8.46
CC1NC=CN1	7.86
CSC1NC=CN1	5.95
CN1C=CNC1N (stereo not drawn)	8.54
O=[N+]([O-])C1NC=CN1	-0.81
C1=CNCN1	6.99
FC1NC=CN1	2.4
CCC1NC=CN1	7.73

Species on record: Gallus gallus
Assay: Tested for anti-coccidial activity
Type: functional

Compound	Log 1/MEC
O=c1cnn(-c2cccc(C(F)(F)F)c2)c(=O)[nH]1	0.93
CS(=O)(=O)c1ccc(-n2ncc(=O)[nH]c2=O)cc1	-0.27
CC(=O)c1ccc(Oc2c(C)cc(-n3ncc(=O)[nH]c3=O)cc2Cl)cc1	2.27
O=c1cnn(-c2ccc(Oc3ccc(Cl)cc3Cl)c(Cl)c2)c(=O)[nH]1	1.71
Cc1cc(-n2ncc(=O)[nH]c2=O)ccc1Oc1ccc(S(C)(=O)=O)cc1	1.97
CSc1ccc(Oc2c(C)cc(-n3ncc(=O)[nH]c3=O)cc2C)cc1C	2.27
O=c1cnn(-c2cc(Cl)c(S(=O)(=O)N3CCOCC3)c(Cl)c2)c(=O)[nH]1	1.13
O=c1cnn(-c2ccc(S(=O)(=O)c3ccccc3)cc2)c(=O)[nH]1	1.04
CCN(C)S(=O)(=O)c1ccc(Oc2c(C)cc(-n3ncc(=O)[nH]c3=O)cc2Cl)c(Cl)c1	2.11
O=c1cnn(-c2ccc(Oc3ccccc3)cc2)c(=O)[nH]1	-0.25
N#Cc1cccc(-n2ncc(=O)[nH]c2=O)c1	0.85
O=C(c1ccc(Cl)cc1)c1c(Cl)cc(-n2ncc(=O)[nH]c2=O)cc1Cl	2.9
Cc1cc(-n2ncc(=O)[nH]c2=O)cc(C)c1C(=O)c1ccc(Cl)cc1	1.38
